Source: ChEMBL document CHEMBL1134273, “Design, synthesis, and characterization of the antitumor activity of novel ceramide analogues” (J Med Chem, 2001)

Columns and labels:
[1] = test system: CCRF-CEM; experiment: In vitro growth inhibitory effect in human T-cell acute leukemia cells CCRF-CEM; assay type: functional, cell-based
[2] = test system: CCRF-CEM; experiment: Percentage increase in caspase-3 activity of CCRF-CEM human T-leukemia cells.; assay type: functional

Row | IC50 [1] | Compound | Increase [2]
1 | 1.7 µM | CCCCCCCCCCCCCCc1c(O)nc(S)nc1CC | 5%
2 |  | CCCCCCCCCCCCCCc1nc(O)nc(O)c1CC | 1.7%
3 | 31.6 µM | CCCCCCCCCCCCC/C=C/[C@@H](O)[C@H](CO)NC(C)=O | 2.8%
4 | 7.9 µM | CCCCCCCCCCCCCCc1c(O)nc(O)nc1CC | 8.1%
5 |  | CCCCCCCCCCCCCCc1nc(S)nc(O)c1CC | 1.2%
